Experimental findings from PubChem BioAssay AID330 (DTP/NCI, 2004) are described below.

Several values for one entry are separate records, joined by “and”; a condition that tells them apart may be missing. Equal values may be shown once. Toxic doses and inconclusive results are not listed.

This assay has as its system P388 leukemia ip, CD2F1 mice, survival T/C. The assay can be described thus: NCI In Vivo Anticancer Drug Screen. Data for tumor model P388 Leukemia (intraperitoneal) in CD2F1 (CDF1) mice. The note with it: endpoint: median survival time, higher = longer survival. The gist of the method:
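Mice carrying the transplanted tumor received test compound or vehicle. Survival was recorded in each group, and the value is the treated-group measurement divided by that of the vehicle-treated control group.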

Where [1] appears, read: dose: 25.0 mg/kg/injection, schedule: Q01DX009 (ip), vehicle: saline with Tween-80.
The mark [2] stands for this setting: dose: 50.0 mg/kg/injection, schedule: Q01DX009 (ip), vehicle: saline with Tween-80.
The mark [3] stands for this setting: dose: 60.0 mg/kg/injection, schedule: Q01DX005 (ip), vehicle: saline with Tween-80.
Setting [4] is: dose: 120.0 mg/kg/injection, schedule: Q01DX005 (ip), vehicle: saline with Tween-80.
The mark [5] stands for this setting: dose: 240.0 mg/kg/injection, schedule: Q01DX005 (ip), vehicle: saline with Tween-80.
[6] abbreviates: dose: 100.0 mg/kg/injection, schedule: Q01DX009 (ip), vehicle: saline with Tween-80.
[7] abbreviates: dose: 50.0 mg/kg/injection, schedule: Q01DX009 (ip), vehicle: Klucel (hydroxypropylcellulose) (HPC).
Setting [8] is: dose: 100.0 mg/kg/injection, schedule: Q01DX009 (ip), vehicle: Klucel (hydroxypropylcellulose) (HPC).
[9] abbreviates: dose: 200.0 mg/kg/injection, schedule: Q01DX009 (ip), vehicle: Klucel (hydroxypropylcellulose) (HPC).
Where [10] appears, read: dose: 200.0 mg/kg/injection, schedule: Q01DX009 (ip), vehicle: saline with Tween-80.
Setting [11] is: dose: 50.0 mg/kg/injection, schedule: Q01DX005 (ip), vehicle: saline with Tween-80.
[12] abbreviates: dose: 100.0 mg/kg/injection, schedule: Q01DX005 (ip), vehicle: saline with Tween-80.
Where [13] appears, read: dose: 200.0 mg/kg/injection, schedule: Q01DX005 (ip), vehicle: saline with Tween-80.
The mark [14] stands for this setting: dose: 100.0 mg/kg/injection, schedule: Q01DX001 (ip), vehicle: Klucel (hydroxypropylcellulose) (HPC).
Where [15] appears, read: dose: 200.0 mg/kg/injection, schedule: Q01DX001 (ip), vehicle: Klucel (hydroxypropylcellulose) (HPC).

As for `CCC1CN2CCc3cc(OC)c(OC)cc3C2CC12CO2` (configuration not stated), the T/C (dose: 12.5 mg/kg/injection, schedule: Q01DX009 (ip), vehicle: saline with Tween-80) is 114 % of control; the T/C under setting [1] is 108 % of control; the T/C under setting [2] was 96 % of control.
With `O=C(O)CSCC(=O)Nc1ccccc1Cl`, the T/C under setting [3] is 95 % of control, the T/C under setting [4] is 91 % of control and the T/C under setting [5] was 100 % of control.
In the case of `CC(C)(c1ccccc1)c1cc(CN2CCCCC2)c(O)c(CN2CCCCC2)c1`, the T/C reads like this: (dose: 0.78 mg/kg/injection, schedule: Q01DX009 (ip), vehicle: saline) 100 % of control and 95 % of control; (dose: 1.56 mg/kg/injection, schedule: Q01DX009 (ip), vehicle: saline) 104 % of control and 112 % of control; (dose: 3.13 mg/kg/injection, schedule: Q01DX009 (ip), vehicle: saline) 108 % of control and 113 % of control and 121 % of control; (dose: 6.25 mg/kg/injection, schedule: Q01DX009 (ip), vehicle: saline) 105 % of control and 90 % of control and 95 % of control; (dose: 12.5 mg/kg/injection, schedule: Q01DX009 (ip), vehicle: saline) 94 % of control; under setting [1], 91 % of control. In addition, the T/C by setting is: (dose: 25.0 mg/kg/injection, schedule: Q01DX009 (ip), vehicle: saline) 96 % of control; under setting [6], 97 % of control.
As to `O=C1NC(=O)C2(c3ccccc3)CCN1C2=O` (configuration not stated), the T/C under setting [7] was 103 % of control, the T/C under setting [8] is 110 % of control and the T/C under setting [9] is 104 % of control.
Turning to `O=C1c2ccccc2C(=O)c2c(NCCCNCCO)ccc(NCCCNCCO)c21`, the T/C was 104 % of control (dose: 3.75 mg/kg/injection, schedule: Q01DX005 (ip), vehicle: other); 101 % of control (dose: 6.25 mg/kg/injection, schedule: Q01DX009 (ip), vehicle: water); 111 % of control (dose: 7.5 mg/kg/injection, schedule: Q01DX005 (ip), vehicle: other); 110 % of control (dose: 7.5 mg/kg/injection, schedule: Q01DX009 (ip), vehicle: water); 117 % of control (dose: 12.5 mg/kg/injection, schedule: Q01DX009 (ip), vehicle: water); 119 % of control (dose: 15.0 mg/kg/injection, schedule: Q01DX005 (ip), vehicle: other). The T/C (dose: 15.0 mg/kg/injection, schedule: Q01DX009 (ip), vehicle: water) was 117 % of control; the T/C (dose: 30.0 mg/kg/injection, schedule: Q01DX005 (ip), vehicle: other) was 120 % of control; the T/C (dose: 100.0 mg/kg/injection, schedule: Q01DX009 (ip), vehicle: other) was 97 % of control; the T/C (dose: 100.0 mg/kg/injection, schedule: Q01DX009 (ip), vehicle: water) was 99 % of control.
For the molecule `CC(=O)Nc1ccc2c(c1)Cc1ccccc1-2`, the T/C reads like this: under setting [6], 100 % of control; under setting [10], 95 % of control; (dose: 400.0 mg/kg/injection, schedule: Q01DX009 (ip), vehicle: saline with Tween-80) 95 % of control.
Take `COc1ccc(Cc2coc3ccccc3c2=O)cc1`: the T/C runs as follows: under setting [3], 102 % of control; under setting [4], 92 % of control; under setting [5], 100 % of control.
In the case of `COc1cccc(N=Nc2c(-c3ccccc3)nn(C(=S)S)c2C)c1`, the T/C reads like this: under setting [11], 93 % of control; under setting [12], 93 % of control; under setting [13], 91 % of control.
As for `O=C(Nc1ccccc1C(=O)Nc1nccs1)c1ccccc1`, the T/C was 86 % of control under setting [3], 93 % of control under setting [4] and 98 % of control under setting [5].
`Cc1ccc(N2CCCCN(c3ccc(C)cc3)/C(c3ccccc3)=C\2c2ccccc2)cc1`: the T/C is, setting by setting: under setting [14], 91 % of control; under setting [15], 91 % of control; (dose: 400.0 mg/kg/injection, schedule: Q01DX001 (ip), vehicle: Klucel (hydroxypropylcellulose) (HPC)) 101 % of control and 91 % of control.
As for `CNc1ccc(CN2CCCCC2)cc1C`, the T/C runs as follows: (dose: 0.93 mg/kg/injection, schedule: Q01DX005 (ip), vehicle: Klucel (hydroxypropylcellulose) (HPC)) 100 % of control and 92 % of control; (dose: 1.87 mg/kg/injection, schedule: Q01DX005 (ip), vehicle: Klucel (hydroxypropylcellulose) (HPC)) 100 % of control and 97 % of control; (dose: 3.75 mg/kg/injection, schedule: Q01DX005 (ip), vehicle: Klucel (hydroxypropylcellulose) (HPC)) 99 % of control and 95 % of control and 96 % of control.
As for `O=C(O)CC1Sc2ccccc2NC1=O` (configuration not stated), the T/C runs as follows: under setting [7], 100 % of control; under setting [8], 108 % of control; under setting [9], 108 % of control; (dose: 400.0 mg/kg/injection, schedule: Q01DX009 (ip), vehicle: Klucel (hydroxypropylcellulose) (HPC)) 100 % of control.
For the molecule `CC(C)(C)C1CCS(=O)(=O)CC1.[Cl][Hg][Cl]`, the T/C is, setting by setting: (dose: 0.25 mg/kg/injection, schedule: Q01DX009 (ip), vehicle: saline) 109 % of control; (dose: 0.5 mg/kg/injection, schedule: Q01DX009 (ip), vehicle: saline) 95 % of control; (dose: 1.0 mg/kg/injection, schedule: Q01DX009 (ip), vehicle: saline) 90 % of control.
Regarding `O=C(OC(Cc1ccccc1)C(=O)O)c1ccc([N+](=O)[O-])cc1` (configuration not stated), the T/C runs as follows: (dose: 50.0 mg/kg/injection, schedule: Q01DX001 (ip), vehicle: Klucel (hydroxypropylcellulose) (HPC)) 97 % of control; under setting [14], 111 % of control; under setting [15], 109 % of control.
As for `CC1=CC(=O)C=CC1=Nc1ccc(N(C)C)cc1`, the T/C reads like this: under setting [1], 108 % of control; under setting [2], 109 % of control.
Consider `Cc1ccc(C(=O)c2ccc[n+](C)c2)cc1`, for which the T/C is 100 % of control (dose: 50.0 mg/kg/injection, schedule: Q01DX005 (ip), vehicle: saline) and 101 % of control (dose: 100.0 mg/kg/injection, schedule: Q01DX005 (ip), vehicle: saline).
With `O=C(NC(=O)C(F)(F)C(F)(F)C(F)(F)F)Nc1cccc(F)c1`, the T/C reads like this: under setting [2], 100 % of control; under setting [6], 100 % of control; under setting [10], 100 % of control.
`COC(=O)c1[nH]cc2ccccc12`: the T/C was 98 % of control (dose: 100.0 mg/kg/injection, schedule: Q04DX003 (ip), vehicle: saline with Tween-80); 104 % of control (dose: 200.0 mg/kg/injection, schedule: Q04DX003 (ip), vehicle: saline with Tween-80); 102 % of control (dose: 400.0 mg/kg/injection, schedule: Q04DX003 (ip), vehicle: saline with Tween-80).
Regarding `FC(F)(F)COP(=S)(OCC(F)(F)F)OCC(F)(F)F`, the T/C was 107 % of control under setting [11], 108 % of control under setting [12] and 110 % of control under setting [13].
For the molecule `Nc1ccccc1N`, the T/C runs as follows: under setting [1], 95 % of control; under setting [6], 120 % of control; (dose: 100.0 mg/kg/injection, schedule: Q04DX003 (ip), vehicle: saline sonified) 100 % of control; under setting [10], 185 % of control.
